This passage reports MIC and IC50 results from ChEMBL document CHEMBL2163337, “Trigohowilols A-G, degraded diterpenoids from the stems of Trigonostemon howii” (J Nat Prod, 2012).

≈ marks a conversion by molar mass, not a printed value. Where only a bound is given, the exact number is not on record here.

Assay [1] relates to Staphylococcus aureus. As to the kind of experiment: Antibacterial activity against methicillin-resistant Staphylococcus aureus clinical isolate 98 by two-fold dilution method. It counts as functional.
For assay [2], the system named is Staphylococcus aureus. As to the kind of experiment: Antibacterial activity against methicillin-resistant Staphylococcus aureus clinical isolate 92 by two-fold dilution method. It counts as functional.
A further assay relates to Pseudomonas aeruginosa. As to the kind of experiment: Antibacterial activity against Pseudomonas aeruginosa ATCC 27853 by two-fold dilution method. It counts as functional.
Assay [3] concerns Staphylococcus aureus. As to the kind of experiment: Antibacterial activity against Staphylococcus aureus ATCC 25923 by two-fold dilution method. It counts as functional.
Another assay concerns SW480. As to the kind of experiment: Cytotoxicity against human SW480 cells by MTT assay. It counts as functional, cell-based.
For another assay, the system named is MCF7. As to the kind of experiment: Cytotoxicity against human MCF7 cells by MTT assay. It counts as functional, cell-based.
For another assay, the system named is A549. As to the kind of experiment: Cytotoxicity against human A549 cells by MTT assay. It counts as functional, cell-based.
The test system of the next assay is HL-60. As to the kind of experiment: Cytotoxicity against human HL60 cells by MTT assay. It counts as functional, cell-based.
The subject of a further assay is SMMC-7721. As to the kind of experiment: Cytotoxicity against human SMMC7721 cells by MTT assay. It counts as functional, cell-based.

Take `COc1cc2c3c(cc(O)c2cc1C)C(C)(C)C(=O)C=C3` [TRIGOHOWILOL A]: the MIC against Staphylococcus aureus [1], in the assay with Staphylococcus aureus [2], against Pseudomonas aeruginosa and with Staphylococcus aureus [3] was 25 µg/mL (≈ 88.5 µM) in each case. Also, the IC50 in the assay with SW480 is > 40 µM; in the assay with MCF7, > 40 µM; with A549, 35.6 µM; with HL-60, 24.8 µM; in the assay on SMMC-7721, > 40 µM.
Consider `Cc1cc2ccc3c(c2cc1O)C=C(O)C(=O)C3(C)C` [TRIGOHOWILOL B], for which the MIC in the assay with Staphylococcus aureus [1] was found to be 50 µg/mL (≈ 186 µM); against Staphylococcus aureus [2] it was 50 µg/mL (≈ 186 µM); against Pseudomonas aeruginosa, 25 µg/mL (≈ 93.2 µM); against Staphylococcus aureus [3], 25 µg/mL (≈ 93.2 µM). For the same compound, the IC50 in the assay on SW480, in the assay with MCF7, in the assay with A549, with HL-60 and in the assay on SMMC-7721 was > 40 µM in each case.
Turning to `Cc1cc2c(cc1O)C1=C(C3=Cc4c(cc(O)c5cc(C)c(O)cc45)C(C)(C)C3=O)C(=O)C(C)(C)C1=CC2=O` [TRIGOHOWILOL C], the MIC with Staphylococcus aureus [1], with Staphylococcus aureus [2], in the assay on Pseudomonas aeruginosa and in the assay with Staphylococcus aureus [3] was 25 µg/mL (≈ 48 µM) throughout. Further, the concentration for half-maximal inhibition (IC50) in the assay on SW480, with MCF7, with A549, in the assay on HL-60 and in the assay with SMMC-7721 was > 40 µM in each case.
Consider `COc1cc2c3c(cc(O)c2cc1C)C(C)(C)C(=O)C(C1=C2C(=CC(=O)c4cc(C)c(O)cc42)C(C)(C)C1=O)=C3` [TRIGOHOWILOL D], for which the MIC against Staphylococcus aureus [1] was found to be 12.5 µg/mL (≈ 23.4 µM); against Staphylococcus aureus [2], 12.5 µg/mL (≈ 23.4 µM); against Pseudomonas aeruginosa, 25 µg/mL (≈ 46.8 µM); against Staphylococcus aureus [3], 12.5 µg/mL (≈ 23.4 µM). The IC50 was > 40 µM with SW480; > 40 µM in the assay on MCF7; > 40 µM in the assay with A549; 24.3 µM in the assay with HL-60; > 40 µM in the assay with SMMC-7721.
Take `COc1cc2c(cc1C)C(=O)C=C1C2=C(C2=Cc3c(cc(O)c4cc(C)c(O)cc34)C(C)(C)C2=O)C(=O)C1(C)C` [TRIGOHOWILOL E]: the MIC in the assay with Staphylococcus aureus [1] worked out at 12.5 µg/mL (≈ 23.4 µM); against Staphylococcus aureus [2], 25 µg/mL (≈ 46.8 µM); in the assay with Pseudomonas aeruginosa it was 50 µg/mL (≈ 93.5 µM); against Staphylococcus aureus [3] it was 6.25 µg/mL (≈ 11.7 µM). In addition, the IC50 with SW480 came to 9.42 µM; with MCF7, 12.6 µM; with A549, 9.69 µM; in the assay with HL-60, 2.61 µM; with SMMC-7721 it was 3.25 µM.
In the case of `COc1cc2c(cc1C)C(=O)C=C1C2=C(C2=Cc3c(cc(O)c4cc(C)c(OC)cc34)C(C)(C)C2=O)C(=O)C1(C)C` [TRIGOHOWILOL F], the MIC was determined as 12.5 µg/mL (≈ 22.8 µM) with Staphylococcus aureus [1], 12.5 µg/mL (≈ 22.8 µM) in the assay with Staphylococcus aureus [2], 25 µg/mL (≈ 45.6 µM) against Pseudomonas aeruginosa and 12.5 µg/mL (≈ 22.8 µM) in the assay with Staphylococcus aureus [3]. For the same compound, the IC50 in the assay with SW480 is 3.56 µM; with MCF7 it was 4.2 µM; in the assay on A549, 3.64 µM; in the assay on HL-60, 2.49 µM; with SMMC-7721, 2.33 µM.
For `COc1cc2c(cc1C)C(=O)C=C1C2=C(C2=C3C(=CC(=O)c4cc(C)c(OC)cc43)C(C)(C)C2=O)C(=O)C1(C)C` [TRIGOHOWILOL G], the MIC in the assay on Staphylococcus aureus [1], against Staphylococcus aureus [2], in the assay with Pseudomonas aeruginosa and with Staphylococcus aureus [3] was > 50 µg/mL each time. The IC50 turned out to be 8.39 µM in the assay with SW480; 15.5 µM in the assay with MCF7; 5.35 µM in the assay with A549; 17.8 µM in the assay on HL-60; 2.78 µM in the assay with SMMC-7721.
On to `CN[C@H](CC(C)C)C(=O)N[C@H]1C(=O)N[C@@H](CC(N)=O)C(=O)N[C@H]2C(=O)N[C@H]3C(=O)N[C@H](C(=O)N[C@H](C(=O)O)c4cc(O)cc(O)c4-c4cc3ccc4O)[C@H](O)c3ccc(c(Cl)c3)Oc3cc2cc(c3O[C@@H]2O[C@H](CO)[C@@H](O)[C@H](O)[C@H]2O[C@H]2C[C@](C)(N)[C@H](O)[C@H](C)O2)Oc2ccc(cc2Cl)[C@H]1O.Cl` [VANCOMYCIN HYDROCHLORIDE], for which the MIC against Staphylococcus aureus [1], in the assay on Staphylococcus aureus [2], against Pseudomonas aeruginosa and against Staphylococcus aureus [3] was 0.78 µg/mL in each case.
